Our source for the photoluminescence quantum yield values is the Deep4Chem optical property database.

The data set in a line: photoluminescence quantum yield (fraction); solvent given as SMILES.

Each structure is given as a SMILES string.

On to `CC(C)(C)c1ccc(C#Cc2cc3c(C#Cc4ccc(C(C)(C)C)cc4)c(C#Cc4ccc(C(C)(C)C)cc4)c4cc(C#Cc5ccc(C(C)(C)C)cc5)cc5c(C#Cc6ccc(C(C)(C)C)cc6)c(C#Cc6ccc(C(C)(C)C)cc6)c(c2)c3c45)cc1`, for which, where the note is “in ClCCl”, the photoluminescence quantum yield is 0.23.
Turning to `COc1cc2cc(OC)c(-c3ccc([N+](=O)[O-])cc3)cc2cc1-c1ccc([N+](=O)[O-])cc1`, the photoluminescence quantum yield (in ClC(Cl)Cl) came to 0.01 and the photoluminescence quantum yield (in ClCCl) was determined as 0.009.
As to `CC(=O)OC[C@@H]1O[C@H](N2C=CC3=Nc4nc(C)[n+](C)cc4CN3C2=O)[C@@H](O)[C@H]1O`, the photoluminescence quantum yield reads like this: (in CC#N) 0.89; (in CCO) 0.05; (in O) 0.2.
For the setting “in C1CCCCC1”, `Cc1cc(C)c(B2c3cc(C(C)(C)C)cc4ccc5c6ccccc6c6cc(C(C)(C)C)cc2c6c5c34)c(C)c1` yielded a photoluminescence quantum yield of 0.72.
Compound `N#Cc1ccc(/C=C2\N=C(c3ccccc3)OC2=O)cc1` yielded a photoluminescence quantum yield (in C1COCCO1) of 0.028.
With `C(=C\c1cnccn1)/c1ccc(N(c2ccccc2)c2ccccc2)cc1`, where the note is “in ClCCl”, the photoluminescence quantum yield was determined as 0.41.
`Cc1cc(C)c(C2=C3C=CC=[N+]3[B-]3(c4ccc5ccc6cccc7ccc4c5c67)Oc4cc(O)cc5c6ccc(C)cc6c6cc2n3c6c45)c(C)c1` (stereo unspecified) returned a photoluminescence quantum yield (in ClC(Cl)Cl) of 0.24.
Where the note is “in ClCCl”, `Nc1cccc2c1ccc1[n+]2[B-](F)(F)n2c-1cc1c3ccccc3c3ccccc3c12` returned a photoluminescence quantum yield of 0.1.
On the same count and under the same terms, the same measure for `COc1ccccc1C1=[N+]2C(=C(c3ccccc3)c3c4ccccc4c(-c4ccccc4OC)n3[B-]2(F)F)c2ccccc21`: 0.91.
On to `CC[N+]1(CC)CN2C(=N1)C(C(=O)O)=Cc1ccccc12`, for which the photoluminescence quantum yield reads like this: (in CN(C)C=O) 0.006; (in O) 0.531.
For the compound `Clc1ccc(-c2nc3ccccc3c3cc4ccccn4c23)s1`, under “in CS(C)=O”, the photoluminescence quantum yield is 0.11.
In the case of `COc1ccc2c(c1)CCC1=C(c3ccccc3)C3=Nc4c(-c5ccccc5)c5c(n4[B-](F)(F)[N+]3=C12)-c1ccc(OC)cc1CC5`, the photoluminescence quantum yield (in ClC(Cl)Cl) was determined as 0.28.
The compound `COC(=O)c1nc2c(N(C)C)nc(N(C)C)nc2n1Cc1ccccc1` yielded a photoluminescence quantum yield (in C1COCCO1) of 0.95, a photoluminescence quantum yield (in CC#N) of 0.86, a photoluminescence quantum yield (in CO) of 0.66 and a photoluminescence quantum yield (in ClCCl) of 0.9.
`Cc1cc(=O)cc(-c2ccc(-c3nc4ccccn4c3NC3CCCCC3)cc2)o1` showed a photoluminescence quantum yield (in ClCCl) of 0.019.
For the compound `CC1=CC(C)=[N+]2C1=C(C1=C(C)C3=C(C)c4c(C)cc(C)n4[B-](F)(F)[N+]3=C1C)c1c(C)cc(C)n1[B-]2(F)F`, the photoluminescence quantum yield (in ClC(Cl)Cl) came out at 0.03.
Compound `C[N+]1=C(/C=C/C=C2/N(CCC[N+](C)(C)C)c3ccc(Br)cc3C2(C)C)C(C)(C)c2ccccc21` displayed a photoluminescence quantum yield (in CS(C)=O) of 0.11.
For the setting “in ClCCl”, `CN(C)c1ccc(/C=C/c2cnc(/C=C/c3ccc(C#N)cc3)o2)cc1` yielded a photoluminescence quantum yield of 0.5.
On the same count and under the same terms, the same measure for `Cc1ccc(N(c2ccc(C)cc2)c2ccc(Oc3nnc(Cl)nn3)cc2)cc1`: 0.0006.
For `c1ccc(-c2ccc(-c3ccc(-c4ccccc4)cc3)cc2)cc1`, the photoluminescence quantum yield (in C1COCCO1) is 0.71.
For the compound `CCCCCCCCN1c2ccccc2Sc2cc(/C=C/c3ccc(N(c4ccc(/C=C/c5ccc6c(c5)Sc5ccccc5N6CCCCCCCC)cc4)c4ccc(/C=C/c5ccc(/C=C/c6ccc(N(c7ccc(/C=C/c8ccc9c(c8)Sc8ccccc8N9CCCCCCCC)cc7)c7ccc(/C=C/c8ccc9c(c8)Sc8ccccc8N9CCCCCCCC)cc7)cc6)c6nsnc56)cc4)cc3)ccc21`, the photoluminescence quantum yield (in C1CCOC1) is 0.024; the photoluminescence quantum yield (in CCOC(C)=O) was found to be 0.125; the photoluminescence quantum yield (in CN(C)C=O) came out at 0.001; the photoluminescence quantum yield (in Cc1ccccc1) was found to be 0.278; the photoluminescence quantum yield (in ClC(Cl)Cl) worked out at 0.061; the photoluminescence quantum yield (in ClCCl) stood at 0.003.
Take `CC/[NH+]=c1\cc2oc3cc(NCCC(=O)NCC(=O)OC)c4ccccc4c3nc-2cc1C`: the photoluminescence quantum yield runs as follows: (in CCO) 0.37; (in O) 0.45.
`c1cc2c3c(cccc3c1)NC(c1ccc3ccc4cccc5ccc1c3c45)N2`: the photoluminescence quantum yield runs as follows: (in CC#N) 0.24; (in CO) 0.05; (in CS(C)=O) 0.08; (in Cc1ccccc1) 0.51.
`C1=[N+]2N=C(c3ccccc3)O[B-]2(c2ccc([B-]34OC(c5ccccc5)=N[N+]3=Cc3c(ccc5ccccc35)O4)cc2)Oc2ccc3ccccc3c21` (stereo unspecified): the photoluminescence quantum yield (in C1CCOC1) was 0.002.
As for `c1ccc2nc3cccc(-c4ccc(-n5c6ccccc6c6ccccc65)cc4)c3cc2c1`, the photoluminescence quantum yield amounted to 0.325 (in CC#N), 0.0319 (in CCCCCC), 0.102 (in CCOCC) and 0.253 (in ClCCl).
Regarding `CCCCN1c2ccccc2Sc2cc(/C=C/C3=Nc4ccc5ccccc5c4C3(C)C)ccc21`, the photoluminescence quantum yield is, setting by setting: (in C1CCCCC1) 0.09; (in C1CCOC1) 0.12; (in C1COCCO1) 0.17; (in CC#N) 0.05; (in CC(C)=O) 0.06; (in CC(C)O) 0.07. The photoluminescence quantum yield (in CCOC(C)=O) is 0.13; the photoluminescence quantum yield (in CCOCC) was 0.14; the photoluminescence quantum yield (in CO) worked out at 0.01; the photoluminescence quantum yield (in CS(C)=O) is 0.09; the photoluminescence quantum yield (in Cc1ccccc1) was found to be 0.18; the photoluminescence quantum yield (in ClCCl) turned out to be 0.11.
As for `CCCOc1ccc(/C=C/C=C/C=C/c2ccc([N+](=O)[O-])cc2)cc1`, the photoluminescence quantum yield is, setting by setting: (in CC1CCCCC1) 0.25; (in CC#N) 0.011; (in Cc1ccccc1) 0.54; (in ClCCl) 0.06.
Consider `c1ccc(-n2cccc2)cc1`, for which the photoluminescence quantum yield by setting is: (in CC#N) 0.17; (in CCCCCC) 0.24.
As to `CCOC(=O)c1sc2nc(-c3ccc(OC)cc3)c(C)c(C#N)c2c1N`, the photoluminescence quantum yield (in c1ccccc1) came to 0.064.
For `COc1nc(Nc2ccc3cc4ccccc4cc3c2)nc(OC)n1`, the photoluminescence quantum yield was 0.45 (in C1COCCO1), 0.37 (in CC#N), 0.39 (in CCCCOCCCC) and 0.26 (in CCOC(C)=O).
`c1ccc2c(c1)c1ccc3cccc4c3c1c2c1c2cccc3ccc5c6ccccc6c(c5c32)c41` showed a photoluminescence quantum yield (in ClCCl) of 0.0031.
In turn, `c1ccc2c(c1)[nH]c1cccnc12` registered a photoluminescence quantum yield (in C1CCCCC1) of 0.145; a photoluminescence quantum yield (in C1CCOC1) of 0.081; a photoluminescence quantum yield (in C1COCCO1) of 0.122; a photoluminescence quantum yield (in CCO) of 0.129; a photoluminescence quantum yield (in CN(C)C=O) of 0.079; a photoluminescence quantum yield (in Cc1ccccc1) of 0.099. The compound also had a photoluminescence quantum yield (in ClC(Cl)Cl) of 0.124 and a photoluminescence quantum yield (in Clc1ccccc1) of 0.119.
Under “in Cc1ccccc1”, `COc1ccc(C2=[N+]3C(=Nc4c5c6cc(OC)c(OC)c(OC)c6c6cc(C(C)(C)C)ccc6c5c(-c5ccc(OC)cc5)n4[B-]3(F)F)c3c2c2ccc(C(C)(C)C)cc2c2c(OC)c(OC)c(OC)cc32)cc1` yielded a photoluminescence quantum yield of 0.35.
